# Like-named read-outs stand apart in the source and are kept apart here.
# What was measured:
# A431 cells = experiment: Cell proliferation (Alamar Blue) assay, A431 cells; type: cell-based; conditions: Homo sapiens, A-431, A431 cells, Alamar Blue
# Description: (§1) Cell viability assay was performed to assess the potency of the compounds in human cancer cell lines 786-0 (renal cell carcinoma) and SJSA-1 (osteosarcoma). Additional cell lines, such as pancreatic cancer cell lines (Panc 02.13, BxPC-3, Panc 12, Panc 02.03, Panc 6.03, PSN-1, HPAC, and Capan-1), prostate cancer cell lines (PC-3, DU145, […], NCI-H660, 1PH1 LNCaP, BM-1604, and MDA PCa 2b), etc., can be tested in a similar method.
# (§2) Cells (SJSA-1, 786-0 and A431) were seeded (5000 cells/100 μL/well) in 96-well tissue culture plate and incubated at 37° C./500 CO2 for 16-24 hours. The cells were then treated with compounds (25 μL of 5×). The compound concentrations were 10-0.0005 μM prepared in 3-fold serial dilutions with final DMSO concentration of 1%. The plates were then incubated for 24 h at 37° C./[…] in a moist environment. Then Alamar Blue™ reagent (final concentration 1×-12.5 μL) was added to each well and incubated for 1.5 hours at 37° C./500 CO2. The plates were read on fluorescence reader at 540 nm excitation and 590 nm emission wavelengths. The IC50 values were subsequently determined using a sigmoidal dose-response curve (variable slope) in GraphPad Prism® 5 software. Tables A-3 and B-11 show cell proliferation data for exemplary compounds as described herein.
# [1] = system: 786-O (renal cell carcinoma) cells; experiment: Cell proliferation (Alamar Blue) assay, 786-O cells; type: cell-based; conditions: Homo sapiens, 786-0, 786-O cells, Alamar Blue
# Description: as §1, §2
# [2] = system: SJSA-1 (osteosarcoma) cells; experiment: Cell proliferation (Alamar Blue) assay, SJSA-1 cells; type: cell-based; conditions: Homo sapiens, 24 h compound treatment
# Description: as §1, §2
# [3] = system: 786-O cells + Ferrastatin-1; experiment: GPX4 inhibition assay: cell proliferation (Alamar Blue) in 786-O cells with ferrostatin rescue; type: cell-based, human
# Description: as §2
# Studies have shown that lipophilic antioxidants, such as ferrostatin, can rescue cells from GPX4 inhibition-induced ferroptosis. For instance, mesenchymal state GPX4-knockout cells can survive in the presence of ferrostatin, however, when the supply of ferrostatin is terminated, these cells undergo ferroptosis (see, e.g., Viswanathan et al., Nature 547:453-7, 2017). […] Accordingly, the ability of a molecule to induce ferroptotic cancer cell death, and that such ability is admonished by the addition of ferrostatin, is clear indication that the molecule is an GPX4 inhibitor. Cell proliferation data for exemplary compounds with and without ferrostatin can be seen in Table A-3.
# [4] = 24 h compound treatment, read-out: IC50 (μM) A431
# [5] = 24 h compound treatment, read-out: IC50 (μM) 786-O
# [6] = 786-O cells in presence of Ferrastatin-1 (rescue), read-out: IC50 (μM) 786-O + Ferrastatin-1
SMILES,IC50 (A431 cells; [4]) [µM],"IC50 [1, 5] [µM]",IC50 [2] [µM],"IC50 [3, 6] [µM]","IC50 (A431 cells; 24 h compound incubation, read-out: Cell proliferation IC50 (μM) A431) [µM]","IC50 ([1]; 24 h compound incubation, read-out: Cell proliferation IC50 (μM) 786-O) [µM]","IC50 ([3]; 786-O cells with Ferrastatin-1 (rescue), read-out: Cell proliferation IC50 (μM) 786-O + Ferrastatin-1) [µM]"
"C#CC(=O)N1[C@@H](CCCC)Cc2cc(OC)ccc2[C@H]1c1ccc(NC(=O)C2CCC2)cc1 [Compound B-19, N-(4-((1R,3S)-3-butyl-6-methoxy-2-propioloyl-1,2,3,4-tetrahydroisoquinolin-1-yl)phenyl) cyclobutane carboxamide]",6.3,0.569,0.52,,,,
"C#CC(=O)N1[C@@H](CCCC)Cc2cc(OC)ccc2[C@@H]1c1ccc(NC(=O)c2ccnc(C)c2)cc1 [Compound B-49, N-(4-((1S,3S)-3-butyl-6-methoxy-2-propioloyl-1,2,3,4-tetrahydroisoquinolin-1-yl)phenyl)-2-methylisonicotinamide]",,0.037,0.2,,,,
"C#CC(=O)N1[C@@H](CCCC)Cc2cc(OC)ccc2[C@@H]1c1ccc(NC2CCC2)cc1 [Compound B-22, 1-((1S,3S)-3-butyl-1-(4-(cyclobutylamino)phenyl)-6-methoxy-3,4-dihydroisoquinolin-2(1H)-yl)prop-2-yn-1-one]",9.96,0.041,0.05,,,,
"C#CC(=O)N1[C@@H](CCCC)Cc2cc(OC)ccc2[C@@H]1c1ccc(NC(=O)C2CCC2)cc1 [Compound B-20, N-{4-[(1S,3S)-3-butyl-6-methoxy-2-(prop-2-ynoyl)-1,2,3,4-tetrahydroisoquinolin-1-yl]phenyl}cyclobutanecarboxamide]",6.14,0.02,0.021,,,,
C#CC(=O)N1[C@@H](CCCC)Cc2cc(OC)ccc2[C@@H]1c1ccc(NC2CCC2)c(Cl)c1 [Compound B-59],2.37,0.052,,5.84,,,
C#CC(=O)N1[C@@H](CCCC)Cc2cc(OC)ccc2[C@@H]1c1cc(F)c(NC23CC4CC(CC(C4)C2)C3)c(F)c1 [Compound B-82],1.84,0.024,,1.71,,,
C#CC(=O)N1[C@@H](CCCC)Cc2cc(NC(=O)C3CCCN3)ccc2[C@@H]1c1ccc(NC23CC4CC(CC(C4)C2)C3)cc1 (some centres unmarked) [Compound B-58],0.856,0.011,,2.36,,,
C#CC(=O)N1[C@@H](CCCC)Cc2cc(OC)ccc2[C@@H]1c1cccc(NC23CC4CC(CC(C4)C2)C3)c1 [Compound B-74],3.06,0.025,,1.91,,,
CCC[C@H]1Cc2cc(OC)ccc2[C@@H](c2ccc(NC34CC5CC(CC(C5)C3)C4)cc2)N1C(=O)C#C[Si](C)(C)C [Compound A-4],,,,,> 1,0.067,> 1

# — patent US20240092739A1, “COMPOUNDS AND METHODS OF USE” (Ferro Therapeutics, Inc, priority 2020, published 2024)
